Test results as given in patent US11014895B2, “Heterocyclic urea compound, and drug composition and application thereof” (CHINA PHARMACEUTICAL UNIVERSITY, priority 2017, dated 2021).

How the values were obtained:
[1] = target: T1, IDO1 enzyme in the Hela cell (Homo sapiens, UniProt P14902); assay: Cell activity: interferon γ-stimulated Hela cells, absorbance of supernatant at 480 nm; assay type: cell-based; settings: interferon γ 100 ng/ml, 72 hours
T1 construct: endogenous in cells; host or cells: HeLa cells stimulated with interferon γ (100 ng/ml)
Summary of the method: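 Kynurenine-type readout: supernatant from IFN-γ-stimulated (100 ng/ml final) HeLa cells, 72 h with compound, was acid-hydrolysed with trichloroacetic acid (50 °C, 30 min). After centrifugation, 2% dimethylaminobenzaldehyde/acetic acid added and absorbance measured at 480 nm.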

IDO1 enzyme = IDO1 enzyme (Homo sapiens, UniProt P14902); assay: Determination of biochemical activity of IDO1 enzyme (absorbance at 320 nm); settings: room temperature, 3 hours
Summary of the method: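 Absorbance at 320 nm was measured after a 3-hour room-temperature reaction of enzyme with compound. Phosphate buffer at pH 7-8 was used; inhibition was derived from the absorption ratio and fitted to IC50.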

T1 sequence (P14902 whole entry): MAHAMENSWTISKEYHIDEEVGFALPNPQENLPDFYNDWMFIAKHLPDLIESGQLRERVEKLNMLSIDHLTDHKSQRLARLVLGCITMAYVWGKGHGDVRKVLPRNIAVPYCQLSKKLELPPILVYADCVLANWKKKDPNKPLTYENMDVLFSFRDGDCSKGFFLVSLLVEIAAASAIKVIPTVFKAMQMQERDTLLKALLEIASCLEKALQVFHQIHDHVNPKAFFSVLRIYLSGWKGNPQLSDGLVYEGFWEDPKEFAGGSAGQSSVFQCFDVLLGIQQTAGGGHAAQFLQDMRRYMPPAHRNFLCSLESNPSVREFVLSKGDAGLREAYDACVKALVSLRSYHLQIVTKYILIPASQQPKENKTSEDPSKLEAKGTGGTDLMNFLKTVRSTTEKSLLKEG
Chain of IDO1 enzyme (P14902 whole entry): as above

Compound | IC50 [1] [µM] | IC50 (IDO1 enzyme) [µM]
COc1ccc(NC(=S)Nc2cocc2/C(=N/O)Nc2ccc(F)c(Br)c2)cc1 [Embodiment 136, (Z)-1-(4-(N-(3-bromo-4-fluorophenyl)-N′-hydroxyaminoiminomethyl)-furan-3-substituted)-3-(4-methoxyphenyl)thiourea] | > 1 | > 1
O=C(NCCO)Nc1nocc1/C(=N/O)Nc1ccc(F)c(Br)c1 [Embodiment 89, (Z)-1-(4-(N-(3-bromo-4-fluorophenyl)-N′-hydroxyaminoiminomethyl)-isoxazole-3-substituted)+3-(2-hydroxyethyl)urea] | < 0.001 | < 0.001
NCCCNC(=O)Nc1cocc1/C(=N/O)Nc1ccc(F)c(Br)c1 [Embodiment 67, (Z)-1-(4-(N-(3-bromo-4-fluorophenyl)-N′-hydroxyaminoiminomethyl)-furan-3-substituted)-3-(3-aminopropyl)urea] | 0.1 to 1 | 0.1 to 1
(Z)-1-(4-(N-(3-bromo-4-fluorophenyl)-N′-hydroxyaminoiminomethyl)-isoxazole-3-substituted)-3-phenylurea [Embodiment 81] | 0.1 to 1 | 0.1 to 1
COc1cccc(NC(=O)Nc2nocc2/C(=N/O)Nc2ccc(F)c(Br)c2)c1 [Embodiment 80, (Z)-1-(4-(N-(3-bromo-4-fluorophenyl)-N′-hydroxyaminoiminomethyl)-isoxazole-3-substituted)-3-(3-methoxyphenyl)urea] | > 1 | > 1
O=C(Nc1conc1/C(=N/O)Nc1ccc(F)c(Cl)c1)NC1CCCCC1 [Embodiment 114] | < 0.001 | < 0.001
NC1CCC(NC(=O)Nc2conc2/C(=N/O)Nc2ccc(F)c(Br)c2)CC1 (stereo not drawn) [Embodiment 108] | 0.1 to 1 | 0.1 to 1
O=C(Nc1nocc1/C(=N/O)Nc1ccc(F)c(Br)c1)NC1CCCCC1 [Embodiment 82, (Z)-1-(4-(N-(3-bromo-4-fluorophenyl)-N′-hydroxyaminoiminomethyl)-isoxazole-3-substituted)-3-(cyclohexyl)urea] | 0.1 to 1 | 0.1 to 1
COc1ccc(NC(=O)Nc2nonc2/C(=N/O)Nc2ccc(F)c(Br)c2)cc1C(F)(F)F [Embodiment 21, (Z)-1-(4-(N-(3-bromo-4-fluorophenyl)-N′-hydroxyaminoiminomethyl)-1,2,5-oxadiazole-3-substituted)-3-(4-methoxy-2-trifluoromethylphenyl)urea] | 0.1 to 1 | 0.1 to 1
O=C(Nc1nonc1/C(=N/O)Nc1ccc(F)c(Br)c1)NC1CCC1 [Embodiment 31, (Z)-1-(4-(N-(3-bromo-4-fluorophenyl)-N′-hydroxyaminoiminomethyl)-1,2,5-oxadiazole-3-substituted)-3-cyclobutylurea] | 0.1 to 1 | 0.1 to 1
O=C(Nc1conc1/C(=N/O)Nc1ccc(F)c(Br)c1)NC1CCCCC1 [Embodiment 103] | 0.1 to 1 | 0.1 to 1
O=C(Nc1nocc1/C(=N/O)Nc1ccc(F)c(Br)c1)NC1CC1 [Embodiment 86, (Z)-1-(4-(N-(3-bromo-4-fluorophenyl)-N′-hydroxyaminoiminomethyl)-isoxazole-3-substituted)-3-(cyclopropyl)urea] | > 1 | > 1
O=C(Nc1conc1/C(=N/O)Nc1ccc(F)c(Br)c1)NC1CCNCC1 [Embodiment 106] | < 0.001 | < 0.001
O=C(Nc1conc1/C(=N/O)Nc1ccc(F)c(Br)c1)NC1CCCC1 [Embodiment 104, (Z)-1-(4-(N-(3-bromo-4-fluorophenyl)-N′-hydroxyaminoiminomethyl)-isoxazole-3-substituted)-4-(cyclopentyl)urea] | > 1 | > 1
O=C(Nc1ccc(O)cc1)Nc1nonc1/C(=N/O)Nc1ccc(F)c(Cl)c1 [Embodiment 23] | < 0.001 | < 0.001
O/N=C(\Nc1ccc(F)c(Br)c1)c1conc1NC(=S)NC1CCCCC1 [Embodiment 135, (Z)-1-(4-(N-(3-bromo-4-fluorophenyl)-N′-hydroxyaminoiminomethyl)-isoxazole-3-substituted)-3-(cyclohexyl)thiourea] | 0.1 to 1 | 0.1 to 1
O/N=C(\Nc1ccc(F)c(Br)c1)c1nonc1NC(=S)NC1CCNCC1 [Embodiment 124, (Z)-1-(4-(N-(3-bromo-4-fluorophenyl)-N′-hydroxyaminoiminomethyl)-1,2,5-oxadiazole-3-substituted)-3-(piperidine-4-substituted)thiourea] | < 0.001 | < 0.001
O=C(Nc1nonc1/C(=N/O)Nc1ccc(F)c(Br)c1)Nc1csc2ccccc12 [Embodiment 39, (Z)-1-(4-(N-(3-bromo-4-fluorophenyl)-N′-hydroxyaminoiminomethyl)-1,2,5-oxadiazole-3-substituted)-3-(benzothiophene-3-substituted)urea] | 0.1 to 1 | 0.1 to 1

Next, values leading:

IC50 [1] [µM] | IC50 (IDO1 enzyme) [µM] | Compound
0.1 to 1 | 0.1 to 1 | O/N=C(\Nc1ccc(F)c(Cl)c1)c1nocc1NC(=S)Nc1ccccc1 [Embodiment 131, (Z)-1-(4-(N-(3-chloro-4-fluorophenyl)-N′-hydroxyaminoiminomethyl)-isoxazole-3-substituted)-4-(phenyl)thiourea]
0.1 to 1 | 0.1 to 1 | NCCNC(=O)Nc1cocc1/C(=N/O)Nc1ccc(F)c(Br)c1 [Embodiment 69, (Z)-1-(4-(N-(3-bromo-4-fluorophenyl)-N′-hydroxyaminoiminomethyl)-furan-3-substituted)-3-(2-aminoethyl)urea]
> 1 | > 1 | N=C(Nc1ccc(C(F)(F)F)cc1)Nc1nonc1/C(=N/O)Nc1ccc(F)c(Br)c1 [Embodiment 143, (Z)-1-(4-(N-(3-bromo-4-fluorophenyl)-N′-hydroxyaminoiminomethyl)-1,2,5-oxadiazole-3-substituted)-3-(4-trifluorophenyl)guanidine]
0.1 to 1 | 0.1 to 1 | CCc1cccc(NC(=O)Nc2nonc2/C(=N/O)Nc2ccc(F)c(Br)c2)c1 [Embodiment 2, (Z)-1-(4-(N-(3-bromo-4-fluorophenyl)-N′-hydroxyaminoiminomethyl)-1,2,5-oxadiazole-3-substituted)-3-(3-ethylphenyl)urea]
> 1 | > 1 | O=C(Nc1ccncn1)Nc1nonc1/C(=N/O)Nc1ccc(F)c(Br)c1 [Embodiment 45, (Z)-1-(4-(N-(3-bromo-4-fluorophenyl)-N′-hydroxyaminoiminomethyl)-1,2,5-oxadiazole-3-substituted)-3-(pyrimidine-4-substituted)urea]
< 0.001 | < 0.001 | O=C(NCCO)Nc1nonc1/C(=N/O)Nc1ccc(F)c(Cl)c1 [Embodiment 28, (Z)-1-(4-(N-(3-chloro-4-fluorophenyl)-N′-hydroxyaminoiminomethyl)-1,2,5-oxadiazole-3-substituted)-3-(23-hydroxyethane)urea]
0.1 to 1 | 0.1 to 1 | N=C(Nc1nocc1/C(=N/O)Nc1ccc(F)c(Br)c1)NC1CCCCC1 [Embodiment 159, (Z)-1-(4-(N-(3-bromo-4-fluorophenyl)-N′-hydroxyaminoiminomethyl)-isoxazole-3-substituted)-3-cyclohexylguanidine]
> 1 | > 1 | O/N=C(\Nc1ccc(F)c(Br)c1)c1nonc1NC(=S)Nc1ccc(C(F)(F)F)cc1 [Embodiment 119, (Z)-1-(4-(N-(3-bromo-4-fluorophenyl)-N′-hydroxyaminoiminomethyl)-1,2,5-oxadiazole-3-substituted)-3-(4-trifluoromethylphenyl)thiourea]
< 0.001 | < 0.001 | O/N=C(\Nc1ccc(F)c(Br)c1)c1nonc1NC(=S)Nc1ccc(O)cc1 [Embodiment 117, (Z)-1-(4-(N-(3-bromo-4-fluorophenyl)-N′-hydroxyaminoiminomethyl)-1,2,5-oxadiazole-3-substituted)-3-(4-hydroxyphenyl)thiourea]
< 0.001 | < 0.001 | O=C(Nc1nocc1/C(=N/O)Nc1ccc(F)c(Br)c1)NC1CCNCC1 [Embodiment 85, (Z)-1-(4-(N-(3-bromo-4-fluorophenyl)-N′-hydroxyaminoiminomethyl)-isoxazole-3-substituted)-3-(piperidine-4-substituted)urea]
> 1 | > 1 | N=C(Nc1nonc1/C(=N/O)Nc1ccc(F)c(Br)c1)NC1CCCC1 [Embodiment 146, (Z)-1-(4-(N-(3-bromo-4-fluorophenyl)-N′-hydroxyaminoiminomethyl)-1,2,5-oxadiazole-3-substituted)-3-cyclopentylguanidine]
0.1 to 1 | 0.1 to 1 | O=C(Nc1nonc1/C(=N/O)Nc1ccc(F)c(Br)c1)Nc1cccc2cc[nH]c12 [Embodiment 36, (Z)-1-(4-(N-(3-bromo-4-fluorophenyl)-N′-hydroxyaminoiminomethyl)-1,2,5-oxadiazole-3-substituted)-3-(1H-indole-7-substituted)urea]
0.1 to 1 | 0.1 to 1 | NCCNC(=S)Nc1nonc1/C(=N/O)Nc1ccc(F)c(Br)c1 [Embodiment 129, (Z)-1-(4-(N-(3-bromo-4-fluorophenyl)-N′-hydroxyaminoiminomethyl)-1,2,5-oxadiazole-3-substituted)-3-(2-aminoethyl)thiourea]
> 1 | > 1 | O/N=C(\Nc1ccc(F)c(Br)c1)c1nonc1NC(=S)NC1CC1 [Embodiment 125, (Z)-1-(4-(N-(3-bromo-4-fluorophenyl)-N′-hydroxyaminoiminomethyl)-1,2,5-oxadiazole-3-substituted)-3-(cyclopropyl)thiourea]
0.1 to 1 | 0.1 to 1 | O=C(Nc1cocc1/C(=N/O)Nc1ccc(F)c(Br)c1)Nc1cccc2[nH]ccc12 [Embodiment 73, (Z)-1-(4-(N-(3-bromo-4-fluorophenyl)-N′-hydroxyaminoiminomethyl)-furan-3-substituted)-3-(4-aminoindole)urea]
